Each block holds one compound with its values, some of them ahead of it.
Assays:
[1] = target: Von Hippel-Lindau disease tumor suppressor/Elongin B/Elongin C (Homo sapiens, UniProt P40337); assay: Displacement of FAM-DEALAHyp-YIPD from VHL/elongins-B/elonginC (unknown origin) by fluorescence polarization assay; type: protein-complex assay
[2] = target: T1, Interferon alpha/beta receptor 1 (Homo sapiens, UniProt P17181); assay: Binding affinity to IFNAR (unknown origin) assessed as inhibition of interaction with IFN-alpha
T1 sequence (P17181 whole entry): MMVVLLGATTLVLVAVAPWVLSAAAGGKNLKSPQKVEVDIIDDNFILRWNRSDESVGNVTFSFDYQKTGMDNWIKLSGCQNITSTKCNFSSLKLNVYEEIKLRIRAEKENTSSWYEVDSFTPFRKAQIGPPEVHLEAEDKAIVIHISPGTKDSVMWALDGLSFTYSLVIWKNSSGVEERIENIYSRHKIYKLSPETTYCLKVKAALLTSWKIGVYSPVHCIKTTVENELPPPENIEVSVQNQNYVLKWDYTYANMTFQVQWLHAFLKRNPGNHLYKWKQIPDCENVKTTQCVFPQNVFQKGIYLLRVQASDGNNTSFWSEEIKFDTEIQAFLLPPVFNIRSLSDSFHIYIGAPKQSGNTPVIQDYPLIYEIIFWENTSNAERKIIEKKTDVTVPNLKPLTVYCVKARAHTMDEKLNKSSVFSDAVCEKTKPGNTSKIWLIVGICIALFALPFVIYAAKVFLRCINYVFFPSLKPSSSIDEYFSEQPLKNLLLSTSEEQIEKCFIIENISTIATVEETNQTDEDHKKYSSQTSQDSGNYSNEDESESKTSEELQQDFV

TCF4/beta-catenin = TCF4/beta-catenin (Homo sapiens, UniProt P35222+Q9NQB0); assay: Inhibition of beta-catenin/T cell factor (unknown origin); type: protein-complex assay
Sequence of TCF4/beta-catenin (P35222 whole entry): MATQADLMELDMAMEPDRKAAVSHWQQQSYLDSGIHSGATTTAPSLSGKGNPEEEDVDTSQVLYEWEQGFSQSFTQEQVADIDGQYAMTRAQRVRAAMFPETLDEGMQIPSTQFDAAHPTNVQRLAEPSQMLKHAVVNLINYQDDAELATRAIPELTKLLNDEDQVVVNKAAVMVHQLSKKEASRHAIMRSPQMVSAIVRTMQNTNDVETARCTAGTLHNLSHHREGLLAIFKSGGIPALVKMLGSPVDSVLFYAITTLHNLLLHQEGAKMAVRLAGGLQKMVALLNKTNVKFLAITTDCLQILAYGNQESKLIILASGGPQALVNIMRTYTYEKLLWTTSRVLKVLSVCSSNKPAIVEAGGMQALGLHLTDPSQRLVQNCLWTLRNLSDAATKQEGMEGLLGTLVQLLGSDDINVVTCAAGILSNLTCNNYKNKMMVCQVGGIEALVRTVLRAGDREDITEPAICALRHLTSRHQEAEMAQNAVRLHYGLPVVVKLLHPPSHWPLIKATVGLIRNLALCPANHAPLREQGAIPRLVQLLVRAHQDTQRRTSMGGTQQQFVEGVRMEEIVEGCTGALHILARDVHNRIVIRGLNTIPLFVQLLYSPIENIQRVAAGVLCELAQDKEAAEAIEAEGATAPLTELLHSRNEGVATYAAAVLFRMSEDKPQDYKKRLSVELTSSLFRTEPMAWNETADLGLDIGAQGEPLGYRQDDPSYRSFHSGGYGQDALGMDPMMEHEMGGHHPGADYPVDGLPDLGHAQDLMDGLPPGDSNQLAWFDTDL
Sequence of TCF4/beta-catenin (Q9NQB0 whole entry): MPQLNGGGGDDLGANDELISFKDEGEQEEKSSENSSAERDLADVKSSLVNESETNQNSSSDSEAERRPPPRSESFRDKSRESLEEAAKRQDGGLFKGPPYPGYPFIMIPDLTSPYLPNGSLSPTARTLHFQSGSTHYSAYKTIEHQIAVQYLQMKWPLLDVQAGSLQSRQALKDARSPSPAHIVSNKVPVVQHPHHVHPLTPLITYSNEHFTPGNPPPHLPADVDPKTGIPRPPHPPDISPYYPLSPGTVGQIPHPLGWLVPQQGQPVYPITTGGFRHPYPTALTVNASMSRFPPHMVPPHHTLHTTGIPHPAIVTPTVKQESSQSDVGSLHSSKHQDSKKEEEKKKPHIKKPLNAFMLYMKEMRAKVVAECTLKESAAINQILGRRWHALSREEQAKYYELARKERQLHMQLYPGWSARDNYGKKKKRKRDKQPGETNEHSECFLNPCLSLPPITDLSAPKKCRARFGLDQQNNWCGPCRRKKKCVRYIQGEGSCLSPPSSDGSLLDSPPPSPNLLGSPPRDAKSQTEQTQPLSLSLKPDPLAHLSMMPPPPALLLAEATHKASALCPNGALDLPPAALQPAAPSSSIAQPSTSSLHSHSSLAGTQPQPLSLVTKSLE

Sequence of Von Hippel-Lindau disease tumor suppressor/Elongin B/Elongin C (P40337 whole entry, looked up): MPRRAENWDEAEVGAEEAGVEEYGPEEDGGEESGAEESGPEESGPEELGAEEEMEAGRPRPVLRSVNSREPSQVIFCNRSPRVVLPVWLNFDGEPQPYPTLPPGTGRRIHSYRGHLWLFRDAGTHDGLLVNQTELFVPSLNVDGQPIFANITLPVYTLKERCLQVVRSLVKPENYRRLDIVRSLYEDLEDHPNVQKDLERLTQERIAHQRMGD

IC50 [1]: 900 nM
SMILES: Cc1ncsc1-c1ccc(CNC(=O)[C@@H]2C[C@@H](O)CN2C(=O)c2cccc(N)c2C)cc1

Kd [2]: 4000 nM
SMILES: CNCc1ccccc1Sc1cccc2ccccc12

Ki (TCF4/beta-catenin): 1350 nM
SMILES: Oc1noc2cc(CCc3nn[nH]n3)ccc12
